Measurements reported in patent publication US6770597B2, “Benzohydrazide derivatives as herbicides and desiccant compositions containing them” (Ishihara Sangyo Kaisha, Ltd., priority 2002, dated 2004).

Tests used:
Format in all cases: in vivo
[1] = tested on: lambsquarters (Chenopodium album, CHEAL); test: Greenhouse herbicide screen, post-emerge application, phytotoxicity rating; settings: POST emergent, 14 days after application, scale 0-100
Description: (§1) A standard greenhouse herbicide activity screening system was used to evaluate the herbicidal efficacy and crop safety of these test compounds. Seven broadleaf weed species including redroot pigweed (Amaranthus retrofiexus, AMARE), velvetleaf (Abutilon theophrasti, ABUTH), sicklepod (Cassia obtusifolia, CASOB), ivyleaf morningglory (Ipomoea hederacea, IPOHE), lambsquarters (Chenopodium album, CHEAL), common ragweed (Ambrosia artemisiifolia L., AMBEL), and cocklebur (Xanthium strumarium, XANST) were used as test species. Four grass weed species including green foxtail (Setaria viridis, SETVI), barnyardgrass (Echinochloa crus-galli, ECHCG), johnsongrass (Sorghum halepense, SORHA), and large crabgrass (Digitaria sanguinalis, DIGSA) were also used. In addition, four crop species, field corn (Zea mays L., var. Dekalb 535, CORN), soybean (Glycine max L., var. Pella 86, SOY), upland rice (Oryza sp., var.Cocodrie, RICE) and wheat (Triticum aestivum L.) were included.
(§2) All plants were grown in 10 cm square plastic pots which were filled with a sandy loam soil mix. For pre-emerge tests, seeds were planted one day prior to application of the test compounds. For post-emerge tests, seeds were planted 8-21 days prior to the test to allow emergence and good foliage development prior to application of the test substances. At the time of the post-emerge application, plants of all species were usually at the 2-3 leaf stage of development.
(§3) All test compounds were dissolved in acetone and applied to the test units in a volume of 187 l/ha. Test materials were applied at rates ranging from 15 g ai/ha to 1000 g ai/ha using a track sprayer equipped with a TJ8001E even flow flat fan spray nozzle. Plants were arranged on a shelf so that the top of the canopy (post-emerge) or top of the soil surface (pre-emerge) was 40-45 cm below the nozzle. Pressurized air was used to force the test solution through the nozzle as it was mechanically advanced (via electrically driven chain drive) over the top of all test plants/pots. This application simulates a typical commercial field herbicide application.
(§4) Pre-emergence tests were top watered immediately after treatment to incorporate the test materials, then routinely top-watered for normal growth. Post-emerge test units were always bottom-watered.
(§5) At 14 days after application of the test materials, phytotoxicity ratings were recorded. A rating scale of 0-100 was used as previously described in Research Methods in Weed Science, 2nd edition, B. Truelove, Ed., Southern Weed Science Society, Auburn University, Auburn, Ala., 1977. Briefly, “0” corresponds to no damage and “100” corresponds to complete death of all plants in the test unit. This scale was used both to determine efficacy against weed species and damage to crop species. Herbicide activity data for various compounds of this invention, which are shown by compound No. in Tables 1-12, are shown in Tables 13 and 14.

[2] = tested on: large crabgrass (Digitaria sanguinalis, DIGSA); test: as above; settings: POST emergent, 14 days after application, scale 0-100
Description: as §1, §2, §3, §4, §5

[3] = tested on: green foxtail (Setaria viridis, SETVI); test: as above; settings: POST emergent, 14 days after application, scale 0-100
Description: as §1, §2, §3, §4, §5

[4] = tested on: ivyleaf morningglory (Ipomoea hederacea, IPOHE); test: as above; settings: POST emergent, 14 days after application, scale 0-100
Description: as §1, §2, §3, §4, §5

[5] = tested on: common ragweed (Ambrosia artemisiifolia L., AMBEL); test: as above; settings: POST emergent, 14 days after application, scale 0-100
Description: as §1, §2, §3, §4, §5

[6] = tested on: sicklepod (Cassia obtusifolia, CASOB); test: as above; settings: POST emergent, 14 days after application, scale 0-100
Description: as §1, §2, §3, §4, §5

[7] = tested on: redroot pigweed (Amaranthus retrofiexus, AMARE); test: as above; settings: POST emergent, 14 days after application
Description: as §1, §2, §3, §4, §5

[8] = tested on: cocklebur (Xanthium strumarium, XANST); test: as above; settings: POST emergent, 14 days after application, scale 0-100
Description: as §1, §2, §3, §4, §5

[9] = tested on: barnyardgrass (Echinochloa crus-galli, ECHCG); test: as above; settings: POST emergent, 14 days after application, scale 0-100
Description: as §1, §2, §3, §4, §5

[10] = tested on: johnsongrass (Sorghum halepense, SORHA); test: as above; settings: POST emergent, 14 days after application, scale 0-100
Description: as §1, §2, §3, §4, §5

[11] = tested on: velvetleaf (Abutilon theophrasti, ABUTH); test: as above; settings: POST emergent, 14 days after application, scale 0-100
Description: as §1, §2, §3, §4, §5

[12] = tested on: field corn (Zea mays L., var. Dekalb 535, CORN); test: Greenhouse herbicide screen, post-emerge application, crop damage rating; settings: POST emergent, 14 days after application, scale 0-100
Description: as §1, §2, §3, §4, §5

[13] = tested on: upland rice (Oryza sp., var.Cocodrie, RICE); test: as above; settings: POST emergent, 14 days after application, scale 0-100
Description: as §1, §2, §3, §4, §5

[14] = tested on: lambsquarters (Chenopodium album, CHEAL); test: Greenhouse herbicide screen, pre-emerge application, phytotoxicity rating; settings: PRE emergent, 14 days after application, rating scale 0-100
Description: as §1, §2, §3, §4, §5

[15] = tested on: large crabgrass (Digitaria sanguinalis, DIGSA); test: as above; settings: PRE emergent, 14 days after application, rating scale 0-100
Description: as §1, §2, §3, §4, §5

[16] = tested on: green foxtail (Setaria viridis, SETVI); test: as above; settings: PRE emergent, 14 days after application, rating scale 0-100
Description: as §1, §2, §3, §4, §5

[17] = tested on: ivyleaf morningglory (Ipomoea hederacea, IPOHE); test: as above; settings: PRE emergent, 14 days after application, rating scale 0-100
Description: as §1, §2, §3, §4, §5

[18] = tested on: common ragweed (Ambrosia artemisiifolia L., AMBEL); test: as above; settings: PRE emergent, 14 days after application, rating scale 0-100
Description: as §1, §2, §3, §4, §5

[19] = tested on: sicklepod (Cassia obtusifolia, CASOB); test: as above; settings: PRE emergent, 14 days after application, rating scale 0-100
Description: as §1, §2, §3, §4, §5

[20] = tested on: redroot pigweed (Amaranthus retrofiexus, AMARE); test: as above; settings: PRE emergent, 14 days after application, rating scale 0-100
Description: as §1, §2, §3, §4, §5

[21] = tested on: cocklebur (Xanthium strumarium, XANST); test: as above; settings: PRE emergent, 14 days after application, rating scale 0-100
Description: as §1, §2, §3, §4, §5

[22] = tested on: barnyardgrass (Echinochloa crus-galli, ECHCG); test: as above; settings: PRE emergent, 14 days after application, rating scale 0-100
Description: as §1, §2, §3, §4, §5

[23] = tested on: johnsongrass (Sorghum halepense, SORHA); test: as above; settings: PRE emergent, 14 days after application, rating scale 0-100
Description: as §1, §2, §3, §4, §5

[24] = tested on: velvetleaf (Abutilon theophrasti, ABUTH); test: as above; settings: PRE emergent, 14 days after application, rating scale 0-100
Description: as §1, §2, §3, §4, §5

[25] = tested on: field corn (Zea mays L., var. Dekalb 535, CORN); test: Greenhouse herbicide screen, pre-emerge application, crop damage rating; settings: PRE emergent, 14 days after application, rating scale 0-100
Description: as §1, §2, §3, §4, §5

[26] = tested on: upland rice (Oryza sp., var.Cocodrie, RICE); test: as above; settings: PRE emergent, 14 days after application, rating scale 0-100
Description: as §1, §2, §3, §4, §5

## CC(=O)OC(=NN(C)C)c1cc(-n2c(=O)cc(C(F)(F)F)n(C)c2=O)ccc1Cl [Compound 4-4]
[1]; 63 g ai/ha
  phytotoxicity rating CHEAL: 100
[1]; 250 g ai/ha
  phytotoxicity rating CHEAL: 100
[2]; 63 g ai/ha
  phytotoxicity rating DIGSA: 98
[2]; 250 g ai/ha
  phytotoxicity rating DIGSA: 100
[3]; 63 g ai/ha
  phytotoxicity rating SETVI: 50
[3]; 250 g ai/ha
  phytotoxicity rating SETVI: 90
[4]; 63 g ai/ha
  phytotoxicity rating IPOHE: 100
[4]; 250 g ai/ha
  phytotoxicity rating IPOHE: 100
[5]; 63 g ai/ha
  phytotoxicity rating AMBEL: 75
[5]; 250 g ai/ha
  phytotoxicity rating AMBEL: 100
[6]; 63 g ai/ha
  phytotoxicity rating CASOB: 65
[6]; 250 g ai/ha
  phytotoxicity rating CASOB: 98
[7]; 63 g ai/ha, scale 0-100 (0 no damage, 100 complete death)
  phytotoxicity rating AMARE: 100
[7]; 250 g ai/ha, scale 0-100
  phytotoxicity rating AMARE: 100
[8]; 63 g ai/ha
  phytotoxicity rating XANST: 0
[8]; 250 g ai/ha
  phytotoxicity rating XANST: 60
[9]; 63 g ai/ha
  phytotoxicity rating ECHCO: 30
[9]; 250 g ai/ha
  phytotoxicity rating ECHCO: 90
[10]; 63 g ai/ha
  phytotoxicity rating SORHA: 60
[10]; 250 g ai/ha
  phytotoxicity rating SORHA: 90
[11]; 63 g ai/ha
  phytotoxicity rating ABUTH: 100
[11]; 250 g ai/ha
  phytotoxicity rating ABUTH: 100
[12]; 63 g ai/ha
  crop damage rating CORN: 25
[12]; 250 g ai/ha
  crop damage rating CORN: 90
[13]; 63 g ai/ha
  crop damage rating RICE: 10
[13]; 250 g ai/ha
  crop damage rating RICE: 55
[14]; 63 g ai/ha
  phytotoxicity rating CHEAL: 100
[14]; 250 g ai/ha
  phytotoxicity rating CHEAL: 100
[15]; 63 g ai/ha
  phytotoxicity rating DIGSA: 98
[15]; 250 g ai/ha
  phytotoxicity rating DIGSA: 100
[16]; 63 g ai/ha
  phytotoxicity rating SETVI: 50
[16]; 250 g ai/ha
  phytotoxicity rating SETVI: 90
[17]; 63 g ai/ha
  phytotoxicity rating IPOHE: 100
[17]; 250 g ai/ha
  phytotoxicity rating IPOHE: 100
[18]; 63 g ai/ha
  phytotoxicity rating AMBEL: 75
[18]; 250 g ai/ha
  phytotoxicity rating AMBEL: 100
[19]; 63 g ai/ha
  phytotoxicity rating CASOB: 65
[19]; 250 g ai/ha
  phytotoxicity rating CASOB: 98
[20]; 63 g ai/ha
  phytotoxicity rating AMARE: 100
[20]; 250 g ai/ha
  phytotoxicity rating AMARE: 100
[21]; 63 g ai/ha
  phytotoxicity rating XANST: 0
[21]; 250 g ai/ha
  phytotoxicity rating XANST: 60
[22]; 63 g ai/ha
  phytotoxicity rating ECHCG: 30
[22]; 250 g ai/ha
  phytotoxicity rating ECHCG: 90
[23]; 63 g ai/ha
  phytotoxicity rating SORHA: 60
[23]; 250 g ai/ha
  phytotoxicity rating SORHA: 90
[24]; 63 g ai/ha
  phytotoxicity rating ABUTH: 100
[24]; 250 g ai/ha
  phytotoxicity rating ABUTH: 100
[25]; 63 g ai/ha
  crop damage rating CORN: 25
[25]; 250 g ai/ha
  crop damage rating CORN: 90
[26]; 63 g ai/ha
  crop damage rating RICE: 10
[26]; 250 g ai/ha
  crop damage rating RICE: 55
